Assay results as given in US20060148730A1, “Method of treating tuberculosis” (priority 2003, published 2006).
In brackets after ≈: the same amount, converted by molar mass.

test system: M. tuberculosis H37Rv; experiment: MIC vs. M. tuberculosis H37Rv, microplate Alamar Blue assay (MABA); type: cell-based; details: Mycobacterium tuberculosis, H37RV, Table 4; read-out: MIC

SMILES | MIC [µM]
CC[C@H]1OC(=O)[C@H](C)[C@@H](OC2CC(C)(OC)C(OC(=O)c3ccccc3)C(C)O2)[C@H](C)[C@@H](OC2OC(C)CC(N(C)C)C2O)[C@](C)(OC)C[C@@H](C)C(=O)[C@H](C)[C@H]2N(NCCCc3ccnc4ccccc34)C(=O)O[C@]12C (stereo partly drawn) [Compound 1SH53a] | 1.69 (≈ 1.79 µg/mL)
CC[C@H]1OC(=O)[C@H](C)[C@@H](OC2CC(C)(OC)C(OC(=O)c3ccccc3)C(C)O2)[C@H](C)[C@@H](OC2OC(C)CC(N(C)C)C2OC(=O)c2ccccc2)[C@](C)(OC)C[C@@H](C)C(=O)[C@H](C)[C@H]2N(NCCCc3ccnc4ccccc34)C(=O)O[C@]12C (stereo partly drawn) [Compound 1SH53b] | 11 (≈ 12.8 µg/mL)
CC[C@H]1OC(=O)[C@H](C)C(O[C@H]2CC(C)(OC)[C@@H](OC(=O)Nc3ccccc3)[C@H](C)O2)[C@H](C)[C@@H](O[C@@H]2O[C@H](C)C[C@H](N(C)C)[C@H]2O)[C@](C)(OC)C[C@@H](C)C(=O)[C@H](C)[C@@H](O)[C@]1(C)O (stereo partly drawn) [Compound 1SH63] | 16 (≈ 13.9 µg/mL)

same assay, conditions: Mycobacterium tuberculosis, H37RV, Table 5; read-out: MIC

SMILES | MIC [µM]
CC[C@H]1OC(=O)[C@H](C)[C@@H](O)[C@H](C)[C@@H](OC2OC(C)CC(N(C)C)C2OC(=O)Nc2ccccc2)[C@](C)(OC)C/C(C)=C2/O[C@@]1(C)C=C2C (stereo partly drawn) [Compound 1GYG9] | 16 (≈ 10.8 µg/mL)

same assay, conditions: Table 3; parallel-synthesis carbazate library products, SPE purified; read-out: MIC

SMILES | MIC [µM]
CC[C@H]1OC(=O)[C@H](C)[C@@H](O[C@H]2CC(C)(OC)[C@@H](O)[C@H](C)O2)[C@H](C)[C@@H](O[C@@H]2O[C@H](C)C[C@H](N(C)C)[C@H]2O)[C@](C)(OC)C[C@@H](C)C(=O)[C@H](C)[C@H]2N(NCCCc3ccccc3)C(=O)O[C@]12C (stereo partly drawn) [A2′] | 10 (≈ 9.06 µg/mL)
CC[C@H]1OC(=O)[C@H](C)[C@@H](O[C@H]2CC(C)(OC)[C@@H](O)[C@H](C)O2)[C@H](C)[C@@H](O[C@@H]2O[C@H](C)C[C@H](N(C)C)[C@H]2O)[C@](C)(OC)C[C@@H](C)C(=O)[C@H](C)[C@H]2N(NC/C=C/c3ccccc3)C(=O)O[C@]12C (stereo partly drawn) [A4′] | 7 (≈ 6.33 µg/mL)
CC[C@H]1OC(=O)[C@H](C)[C@@H](O[C@H]2CC(C)(OC)[C@@H](O)[C@H](C)O2)[C@H](C)[C@@H](O[C@@H]2O[C@H](C)C[C@H](N(C)C)[C@H]2O)[C@](C)(OC)C[C@@H](C)C(=O)[C@H](C)[C@H]2N(NC/C=C/c3cc(OC)c(O)c(OC)c3)C(=O)O[C@]12C (stereo partly drawn) [A6′] | 10.2 (≈ 10 µg/mL)
CC[C@H]1OC(=O)[C@H](C)[C@@H](O[C@H]2CC(C)(OC)[C@@H](O)[C@H](C)O2)[C@H](C)[C@@H](O[C@@H]2O[C@H](C)C[C@H](N(C)C)[C@H]2O)[C@](C)(OC)C[C@@H](C)C(=O)[C@H](C)[C@H]2N(NCc3ccc([N+](=O)[O-])o3)C(=O)O[C@]12C (stereo partly drawn) [A8′] | >9
CC[C@H]1OC(=O)[C@H](C)[C@@H](O[C@H]2CC(C)(OC)[C@@H](O)[C@H](C)O2)[C@H](C)[C@@H](O[C@@H]2O[C@H](C)C[C@H](N(C)C)[C@H]2O)[C@](C)(OC)C[C@@H](C)C(=O)[C@H](C)[C@H]2N(NCc3ccoc3)C(=O)O[C@]12C (stereo partly drawn) [A10′] | >7
CC[C@H]1OC(=O)[C@H](C)[C@@H](O[C@H]2CC(C)(OC)[C@@H](O)[C@H](C)O2)[C@H](C)[C@@H](O[C@@H]2O[C@H](C)C[C@H](N(C)C)[C@H]2O)[C@](C)(OC)C[C@@H](C)C(=O)[C@H](C)[C@H]2N(NCc3cc(C(=O)OC)c(C)o3)C(=O)O[C@]12C (stereo partly drawn) [A12′] | >12
CCOC(=O)c1cc(-c2ccc(Cl)cc2)oc1CNN1C(=O)O[C@]2(C)[C@@H](CC)OC(=O)[C@H](C)[C@@H](O[C@H]3CC(C)(OC)[C@@H](O)[C@H](C)O3)[C@H](C)[C@@H](O[C@@H]3O[C@H](C)C[C@H](N(C)C)[C@H]3O)[C@](C)(OC)C[C@@H](C)C(=O)[C@H](C)[C@@H]12 (stereo partly drawn) [B1′] | >18
CC[C@H]1OC(=O)[C@H](C)[C@@H](O[C@H]2CC(C)(OC)[C@@H](O)[C@H](C)O2)[C@H](C)[C@@H](O[C@@H]2O[C@H](C)C[C@H](N(C)C)[C@H]2O)[C@](C)(OC)C[C@@H](C)C(=O)[C@H](C)[C@H]2N(NCc3nccn3C)C(=O)O[C@]12C (stereo partly drawn) [B3′] | >18
CC[C@H]1OC(=O)[C@H](C)[C@@H](O[C@H]2CC(C)(OC)[C@@H](O)[C@H](C)O2)[C@H](C)[C@@H](O[C@@H]2O[C@H](C)C[C@H](N(C)C)[C@H]2O)[C@](C)(OC)C[C@@H](C)C(=O)[C@H](C)[C@H]2N(NCc3cncn3C)C(=O)O[C@]12C (stereo partly drawn) [B5′] | >27
CCCCc1nc(CNN2C(=O)O[C@]3(C)[C@@H](CC)OC(=O)[C@H](C)[C@@H](O[C@H]4CC(C)(OC)[C@@H](O)[C@H](C)O4)[C@H](C)[C@@H](O[C@@H]4O[C@H](C)C[C@H](N(C)C)[C@H]4O)[C@](C)(OC)C[C@@H](C)C(=O)[C@H](C)[C@@H]23)c(Cl)[nH]1 (stereo partly drawn) [B7′] | >19
CC[C@H]1OC(=O)[C@H](C)[C@@H](O[C@H]2CC(C)(OC)[C@@H](O)[C@H](C)O2)[C@H](C)[C@@H](O[C@@H]2O[C@H](C)C[C@H](N(C)C)[C@H]2O)[C@](C)(OC)C[C@@H](C)C(=O)[C@H](C)[C@H]2N(NCc3c(C)[nH]c4ccc([N+](=O)[O-])cc34)C(=O)O[C@]12C (stereo partly drawn) [B11′] | >22
CC[C@H]1OC(=O)[C@H](C)[C@@H](O[C@H]2CC(C)(OC)[C@@H](O)[C@H](C)O2)[C@H](C)[C@@H](O[C@@H]2O[C@H](C)C[C@H](N(C)C)[C@H]2O)[C@](C)(OC)C[C@@H](C)C(=O)[C@H](C)[C@H]2N(NCc3cn(Cc4ccccc4)c4ccccc34)C(=O)O[C@]12C (stereo partly drawn) [C2′] | 7 (≈ 7.05 µg/mL)
CC[C@H]1OC(=O)[C@H](C)[C@@H](O[C@H]2CC(C)(OC)[C@@H](O)[C@H](C)O2)[C@H](C)[C@@H](O[C@@H]2O[C@H](C)C[C@H](N(C)C)[C@H]2O)[C@](C)(OC)C[C@@H](C)C(=O)[C@H](C)[C@H]2N(NCc3cn(S(=O)(=O)c4ccc(C)cc4)c4ccccc34)C(=O)O[C@]12C (stereo partly drawn) [C4′] | 11 (≈ 11.8 µg/mL)
CC[C@H]1OC(=O)[C@H](C)[C@@H](O[C@H]2CC(C)(OC)[C@@H](O)[C@H](C)O2)[C@H](C)[C@@H](O[C@@H]2O[C@H](C)C[C@H](N(C)C)[C@H]2O)[C@](C)(OC)C[C@@H](C)C(=O)[C@H](C)[C@H]2N(NCc3c(C)noc3C)C(=O)O[C@]12C (stereo partly drawn) [C6′] | >17
CC[C@H]1OC(=O)[C@H](C)[C@@H](O[C@H]2CC(C)(OC)[C@@H](O)[C@H](C)O2)[C@H](C)[C@@H](O[C@@H]2O[C@H](C)C[C@H](N(C)C)[C@H]2O)[C@](C)(OC)C[C@@H](C)C(=O)[C@H](C)[C@H]2N(NCc3c(-c4ccccc4)noc3C)C(=O)O[C@]12C (stereo partly drawn) [C10′] | 12 (≈ 11.5 µg/mL)
CC[C@H]1OC(=O)[C@H](C)[C@@H](O[C@H]2CC(C)(OC)[C@@H](O)[C@H](C)O2)[C@H](C)[C@@H](O[C@@H]2O[C@H](C)C[C@H](N(C)C)[C@H]2O)[C@](C)(OC)C[C@@H](C)C(=O)[C@H](C)[C@H]2N(/N=C/c3c(C)noc3-c3ccccc3)C(=O)O[C@]12C (stereo partly drawn) [C12′] | 9 (≈ 8.61 µg/mL)

same assay, conditions: Table 4; read-out: MIC

SMILES | MIC [µM]
CCC1OC(=O)C(C)C(OC2CC(C)(OC)C(O)C(C)O2)C(C)C(OC2OC(C)CC(N(C)C)C2O)C(C)(OC)CC(C)C(=NOCCCCF)C(C)C(O)C1(C)O (stereo not drawn) [Compound 1DP79] | 3.5 (≈ 2.93 µg/mL)
CCC1OC(=O)C(C)C(OC2CC(C)(OC)C(O)C(C)O2)C(C)C(OC2OC(C)CC(N(C)C)C2O)C(C)(OC)CC(C)C(=NOCCC2OCCO2)C(C)C(O)C1(C)O (stereo not drawn) [Compound 1GY11] | 29.5 (≈ 25.5 µg/mL)

same assay, conditions: Table 5; read-out: MIC

SMILES | MIC [µM]
C#CCON=C1C(C)CC(C)(OC)C(OC2OC(C)CC(N(C)C)C2O)C(C)C(OC2CC(C)(OC)C(O)C(C)O2)C(C)C(=O)OC(CC)C(C)(O)C(O)C1C (stereo not drawn) [Compound 1GY17] | 13 (≈ 10.4 µg/mL)
CCC1OC(=O)C(C)C(OC2CC(C)(OC)C(O)C(C)O2)C(C)C(OC2OC(C)CC(N(C)C)C2O)C(C)(OC)CC(C)C(=NOC(C)(C)CC(C)=O)C(C)C(O)C1(C)O (stereo not drawn) [Compound 1GY27] | 31 (≈ 26.7 µg/mL)
CCC1OC(=O)C(C)C(OC2CC(C)(OC)C(O)C(C)O2)C(C)C(OC2OC(C)CC(N(C)C)C2O)C(C)(OC)CC(C)C(=NOCC(=O)c2ccc(-c3ccccc3)cc2)C(C)C(O)C1(C)O (stereo not drawn) [Compound 1GY53] | 6.8 (≈ 6.51 µg/mL)
CCC1OC(=O)C(C)C(OC2CC(C)(OC)C(O)C(C)O2)C(C)C(OC2OC(C)CC(N(C)C)C2O)C(C)(O)CC(C)C(=NN=Cc2ccc(C(F)(F)F)cc2)C(C)C(O)C1(C)O (stereo not drawn) [Compound 1OK95] | 27 (≈ 24.4 µg/mL)
CCC1OC(=O)C(C)C(OC2CC(C)(OC)C(O)C(C)O2)C(C)C(OC2OC(C)CC(N(C)C)C2O)C(C)(O)CC(C)C(=NNC2CCCCC2)C(C)C(O)C1(C)O (stereo not drawn) [Compound 1OK107] | 3.9 (≈ 3.24 µg/mL)
CCC1OC(=O)C(C)C(OC2CC(C)(OC)C(O)C(C)O2)C(C)C(OC2OC(C)CC(N(C)C)C2O)C(C)(O)CC(C)C(=NN=Cc2cccc(OC(F)(F)F)c2)C(C)C(O)C1(C)O (stereo not drawn) [Compound 1OK109] | 11 (≈ 10.1 µg/mL)
CCC1OC(=O)C(C)C(OC2CC(C)(OC)C(O)C(C)O2)C(C)C(OC2OC(C)CC(N(C)C)C2O)C(C)(O)CC(C)C(=NN=Cc2cccc(C(F)(F)F)c2)C(C)C(O)C1(C)O (stereo not drawn) [Compound 1OK119] | 16 (≈ 14.5 µg/mL)
CCC1OC(=O)C(C)C(OC2CC(C)(OC)C(O)C(C)O2)C(C)C(OC2OC(C)CC(N(C)C)C2O)C(C)(O)CC(C)C(=NN=Cc2ccc(SC)cc2)C(C)C(O)C1(C)O (stereo not drawn) [Compound 1OK121] | 12 (≈ 10.6 µg/mL)
CCC1OC(=O)C(C)C(OC2CC(C)(OC)C(O)C(C)O2)C(C)C(OC2OC(C)CC(N(C)C)C2O)C(C)(O)CC(C)C(=NNCc2ccc(C(F)(F)F)cc2)C(C)C(O)C1(C)O (stereo not drawn) [Compound 1OK133] | 25 (≈ 22.7 µg/mL)
CCC1OC(=O)C(C)C(OC2CC(C)(OC)C(O)C(C)O2)C(C)C(OC2OC(C)CC(N(C)C)C2O)C(C)(O)CC(C)C(=NNCc2ccc(SC)cc2)C(C)C(O)C1(C)O (stereo not drawn) [Compound 1OK137] | 47 (≈ 41.6 µg/mL)
CCCCCCNC(=O)OC1C(OC2C(C)C(OC3CC(C)(OC)C(O)C(C)O3)C(C)C(=O)OC(CC)C(C)(O)C(O)C(C)C(=O)C(C)CC2(C)OC)OC(C)CC1N(C)C (stereo not drawn) [Compound 1SH88] | 15 (≈ 13.1 µg/mL)
CCC1OC(=O)C(C)C(O)C(C)C(OC2OC(C)CC(N(C)C)C2O)C(C)(OC)CC(C)C(=NOCCC2CCCCC2)C(C)C(O)C1(C)O (stereo not drawn) [Compound 2GY5] | 3.1 (≈ 2.22 µg/mL)
CC[C@H]1OC(=O)[C@H](C)[C@@H](O)[C@H](C)[C@@H](O[C@@H]2O[C@H](C)C[C@H](N(C)C)[C@H]2O)[C@](C)(OC)C[C@@H](C)C(=NOCCc2ccccc2)[C@H](C)[C@@H](O)[C@]1(C)O [Compound 2GY7] | 16 (≈ 11.3 µg/mL)
CCC1OC(=O)C(C)C(O)C(C)C(OC2OC(C)CC([N+](C)(C)Cc3ccccc3)C2OCc2ccccc2)C(C)(OC)CC(C)C(=NOCc2ccccc2)C(C)C(O)C1(C)O (stereo not drawn) [Compound 2GY11] | 7.1
